For six molecules, Ki results are on record in patent US9518060B2, “Substituted pyrrolo[3,4-c]pyrazoles as PKC kinase inhibitors” (PFIZER INC., priority 2007, dated 2016).

Some results are limits rather than exact numbers.

For this assay, the target named is Protein Kinase C beta 2 (PKCβII) (Homo sapiens (Human), UniProt P05771). In words: PKCβII coupled spectrophotometric kinase assay (PK/LDH, NADH absorbance at 340 nm). The following applies: apparent Ki, ATP competitive inhibition model (Morrison equation); 0.1 mM ATP, 5 nM PKC, 30° C.; read-out: Ki app. In kind it is biochemical. In short, it runs like this: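 PK/LDH-coupled ADP detection (NADH loss at 340 nm), 20 min at 30° C, pH 7.4; 5 nM PKCβII, 0.15 mM pseudosubstrate peptide, 0.1 mM ATP, with CaCl2, PS and PMA activators, 7.5% DMSO. Apparent Ki from initial velocities fitted to ATP-competitive Morrison model over 10,000–0.169 nM inhibitor.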
Sequence of Protein Kinase C beta 2 (PKCβII) (P05771 other isoform, or with tags, fused parts or gaps): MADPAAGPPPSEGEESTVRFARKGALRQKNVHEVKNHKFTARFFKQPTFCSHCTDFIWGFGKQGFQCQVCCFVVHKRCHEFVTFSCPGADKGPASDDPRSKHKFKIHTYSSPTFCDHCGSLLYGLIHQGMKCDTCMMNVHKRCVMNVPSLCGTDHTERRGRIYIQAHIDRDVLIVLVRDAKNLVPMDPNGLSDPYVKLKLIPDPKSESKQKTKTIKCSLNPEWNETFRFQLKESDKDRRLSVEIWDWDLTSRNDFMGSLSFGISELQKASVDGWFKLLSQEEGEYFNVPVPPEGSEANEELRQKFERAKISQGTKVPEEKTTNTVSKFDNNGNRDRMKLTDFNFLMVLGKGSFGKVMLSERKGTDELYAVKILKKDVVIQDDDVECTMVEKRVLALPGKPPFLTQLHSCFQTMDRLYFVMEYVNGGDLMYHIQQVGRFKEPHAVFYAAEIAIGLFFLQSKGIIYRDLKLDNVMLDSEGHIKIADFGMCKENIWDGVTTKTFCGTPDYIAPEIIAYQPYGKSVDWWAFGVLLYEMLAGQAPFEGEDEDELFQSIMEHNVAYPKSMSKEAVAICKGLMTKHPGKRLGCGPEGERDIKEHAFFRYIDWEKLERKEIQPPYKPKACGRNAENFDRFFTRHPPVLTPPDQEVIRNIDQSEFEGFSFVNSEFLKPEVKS
Turning to `CCN1C[C@H](C)N(C(=O)N2Cc3c(Nc4nc(OC)ncc4F)n[nH]c3C2(C)C)C[C@H]1C` [Example AA1, 5-{[(2S,5R)-4-ethyl-2,5-dimethylpiperazin-1-yl]carbonyl}-N-(5-fluoro-2-methoxypyrimidin-4-yl)-6,6-dimethyl-1,4,5,6-tetrahydropyrrolo[3,4-c]pyrazol-3-amine], the Ki turned out to be 22.9 nM.

As for `CCNc1ncc(F)c(Nc2n[nH]c3c2CN(C(=O)C2(F)CCN(C)CC2)C3(C)C)n1` [Example C1, N^2-ethyl-5-fluoro-N^4-{5-[(4-fluoro-1-methylpiperidin-4-yl)carbonyl]-6,6-dimethyl-1,4,5,6-tetrahydropyrrolo[3,4-c]pyrazol-3-yl}pyrimidine-2,4-diamine], the Ki is 33.4 nM.

Take `CCc1ncc(F)c(Nc2n[nH]c3c2CN(C(=O)N2C[C@@H](C)N(CCC(F)(F)F)C[C@@H]2C)C3(C)C)n1` [Example E4, 5-{[(2S,5R)-2,5-dimethyl-4-(3,3,3-trifluoropropyl)piperazin-1-yl]carbonyl}-N-(2-ethyl-5-fluoropyrimidin-4-yl)-6,6-dimethyl-1,4,5,6-tetrahydropyrrolo[3,4-c]pyrazol-3-amine]: the Ki amounted to 31.5 nM.

For the molecule `CCOc1ncc(F)c(Nc2n[nH]c3c2CN(C(=O)N2C[C@@H](C)N(CCOC)C[C@@H]2C)C3(C)C)n1` [Example K4, N-(2-ethoxy-5-fluoropyrimidin-4-yl)-5-{[(2S,5R)-4-(2-methoxyethyl)-2,5-dimethylpiperazin-1-yl]carbonyl}-6,6-dimethyl-1,4,5,6-tetrahydropyrrolo[3,4-c]pyrazol-3-amine], the Ki is 3.33 nM.

As for `CCOc1ncc(F)c(Nc2n[nH]c3c2CN(C(=O)N2C[C@@H](C)N(CC)C[C@@H]2C)C3(C)C)n1` [Example K2, N-(2-ethoxy-5-fluoropyrimidin-4-yl)-6,6-dimethyl-5-{[4-ethyl(2S,5R)-2,5-dimethylpiperazin-1-yl]carbonyl}-1,4,5,6-tetrahydropyrrolo[3,4-c]pyrazol-3-amine], the Ki is 2.11 nM.

Turning to `C[C@@H]1CN(C(=O)N2Cc3c(Nc4nccc(C(F)(F)F)n4)n[nH]c3C2(C)C)[C@@H](C)CN1C1CCOCC1` [Example J13], the Ki was under 10 nM.
